Series [1] has as its system genotype 1a H-77 replicon. The series is described as follows: HCV-1a replicon potency in RLuc-1 cells, bioluminescence. Type of series: cell-based. The note with it: for HCV-1a Replicon Selectivity Index: CC50/EC50, genotype 1a replicon; for EC50: Hepatitis C virus, 72 h, read-out: HCV-1a Replicon EC50 (μM). On the technique in general: A replicon is a self-replicating genome or part of one, used to study replication in cells.

Series [2] can be described thus: Cytotoxicity in HCV-1a replicon cells, Promega CellTiter-Glo cell viability assay.

By EC50 is commonly meant the midpoint of the concentration-response curve. The term CC50 denotes the concentration that lowers cell viability or growth by half. Higher therefore signals lower toxicity to the cells.

On to `Nc1nc(N2CCN(C(=O)COc3ccc(Cl)cc3)CC2)c2nc(-c3ccc(C(F)(F)F)cc3)[nH]c2n1` [Example 394, 1-(4-(2-amino-8-(4-(trifluoromethyl)phenyl)-9H-purin-6-yl)piperazin-1-yl)-2-(4-chlorophenoxy)ethanone], for which, in series [1], the “HCV-1a Replicon Selectivity Index” value came out at 1.2 and the EC50 was 9 µM. Further, in series [2], the midpoint of cytotoxicity, the CC50 at 72 h, lay at 10.6 µM.

For the compound `Nc1nc(N2CCN(C(=O)COc3ccc(Cl)cc3)CC2)c2nc(C3(c4ccc(Cl)cc4)CC3)sc2n1` [Example 117, 5-amino-7-[4-(4-chlorophenoxyacetyl)piperazin-1-yl]-2-(1-(4-chlorophenyl)cyclopropyl)thiazolo[5,4-d]pyrimidine], in series [1], the “HCV-1a Replicon Selectivity Index” value is on record as 1.3 and the EC50 was 17.7 µM. In series [2], this compound came in with a CC50 at 72 h of 23.3 µM.

On to `Nc1nc(N2CCN(C(=O)COc3ccc(Cl)cc3)CC2)c2cc(-c3ccccc3)sc2n1` [Example 329, 1-(4-(2-amino-6-phenylthieno[2,3-d]pyrimidin-4-yl)piperazin-1-yl)-2-(4-chlorophenoxy)ethanone], for which, in series [1], the “HCV-1a Replicon Selectivity Index” value is reported as 3.8 and the EC50 came to 11.8 µM. The compound also came in with a CC50 at 72 h in series [2] of more than 44.4 µM.

For `CC(C)(C)c1nc2c(N3CCN(C(=O)COc4ccc(Cl)cc4)CC3)nc(N)nc2[nH]1` [Example 399, 1-(4-(2-amino-8-tert-butyl-9H-purin-6-yl)piperazin-1-yl)-2-(4-chlorophenoxy)ethanone], in series [1], the “HCV-1a Replicon Selectivity Index” value was 1.2 and the EC50 was found to be 24.7 µM. Besides, the CC50 at 72 h in series [2] was determined as 29.1 µM.

With `Nc1nc(N2CCN(CC(=O)NCCc3ccccc3)CC2)c2nc(CCc3ccc(F)cc3)sc2n1` [Example 141, 5-amino-2-[2-(4-fluorophenyl)ethyl]-7-(4-(phenethylcarbamoyl-methyl)piperazin-1-yl)-thiazolo[5,4-d]pyrimidine], in series [1], the “HCV-1a Replicon Selectivity Index” value came to 1.0 and the EC50 is 15.8 µM. In series [2], this compound registered a CC50 at 72 h of 16 µM.

With `CN(C(=O)CN1CCN(c2nc(N)nc3[nH]c(-c4ccc(F)cc4)nc23)CC1)c1ccccc1` [Example 413, 2-(4-(2-amino-8-(4-fluorophenyl)-9H-purin-6-yl)piperazin-1-yl)-N-methyl-N-phenylacetamide], in series [1], the “HCV-1a Replicon Selectivity Index” value turned out to be 0.5 and the concentration for a half-maximal effect (EC50) was more than 44.4 µM. In series [2], this compound returned a CC50 at 72 h of 20.3 µM.

For `Nc1nc(N2CCN(C(=O)COc3ccc(Cl)cc3)CC2)c2nc(-c3ccc(Cl)cc3)[nH]c2n1` [Example 392, 1-(4-(2-amino-8-(4-chlorophenyl)-9H-purin-6-yl)piperazin-1-yl)-2-(4-chlorophenoxy)ethanone], in series [1], the “HCV-1a Replicon Selectivity Index” value amounted to 4.6 and the EC50 came to 2.7 µM. Moreover, in series [2], half-maximal cytotoxicity (CC50 at 72 h) was put at 12.2 µM.

Turning to `Nc1nc(N2CCN(C(=O)CCc3ccccc3)CC2)c2nc(-c3ccc(F)cc3)[nH]c2n1` [Example 438, 1-(4-(2-amino-8-(4-fluorophenyl)-9H-purin-6-yl)piperazin-1-yl)-3-phenylpropan-1-one], in series [1], the “HCV-1a Replicon Selectivity Index” value came to 0.6 and the EC50 is 10.3 µM. The same compound returned a CC50 at 72 h in series [2] of 6.1 µM.

`Nc1nc(N2CCN(C(=O)COc3ccccc3)CC2)c2cc(-c3ccccc3)sc2n1` [Example 332, 1-(4-(2-amino-6-phenylthieno[2,3-d]pyrimidin-4-yl)piperazin-1-yl)-2-phenoxyethanone]: in series [1], the “HCV-1a Replicon Selectivity Index” value stood at 0.9 and the EC50 was more than 44.4 µM. The compound also yielded a CC50 at 72 h in series [2] of 38.5 µM.

With `Cc1cccc(NC(=O)N2CCN(c3nc(N)nc4oc(CCc5ccc(F)cc5)nc34)CC2)c1` [Example 196, 5-amino-2-[2-(4-fluorophenyl)ethyl]-7-(4-m-tolylcarbamoylpiperazin-1-yl)-oxazolo[5,4-d]pyrimidine], in series [1], the “HCV-1a Replicon Selectivity Index” value came to 1.6 and the EC50 came out at 15.6 µM. In series [2], this compound registered a CC50 at 72 h of 24.5 µM.
